Assay results: US12459951B2, “Compounds that interact with RAS superfamily proteins for treatment of cancers, inflammatory diseases, rasopathies, and fibrotic disease” (SHY Therapeutics, LLC, priority 2022, dated 2025)

Experiments:
Akt phosphorylation = assay: Akt Phosphorylation Assay (western blot), Panc-1; assay type: cell-based, human; details: at 10 μM, * = activation
Outline: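 Panc-1 (KRas G12D) cells were treated with compound at 10 μM final (0.3% DMSO) for 6 h at 37 °C, or with serial dilutions for IC50. Cells were either serum-starved overnight in 0.5% FBS and then stimulated with 1.5 ng/ml EGF for 15 min, or kept in 10% FBS without stimulation. Akt Ser473 phosphorylation in lysates was read by western blot.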

[1] = tested on: MiaPaca-2 (expressing KRAS G12C mutant); assay: Proliferation Assay (Cell Viability Assay); assay type: cell-based; details: Homo sapiens, MIA PaCa-2; read-out: Proliferation in MiaPaca-2: IC50
Outline: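 MiaPaca-2 cells (KRAS G12C) were grown in DMEM-high glucose with 10% FBS, seeded at 2000–5000 cells/well and cultured overnight. Compounds were added at 10 μM final, or as serial dilutions for IC50, in 0.3% DMSO/10% FBS for 2–4 days at 37 °C, 5% CO2. Viability was measured with CellTiter 96 Aqueous One and % inhibition calculated.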

Row | IC50 [1] | Structure (SMILES) | % inh of Akt phosphorylation in Panc-1 (Akt phosphorylation)
1 | < 150 nM | COc1cccnc1Nc1nc(-c2nccn2C)nn2cc(-c3ccn(C(C)C)n3)c(C)c12 [Compound 89, 6-(1-Isopropyl-1H-pyrazol-3-yl)-N-(3-methoxypyridin-2-yl)-5-methyl-2-(1-methyl-1H-imidazol-2-yl)pyrrolo[2,1-f][1,2,4]triazin-4-amine] | D* (85-100% activation)
2 | > 1000 nM | COC[C@@H]1CC[C@@H]1CNc1nc(-c2nccn2C)nn2cc(-c3ccn(C(C)C)n3)c(C)c12 (racemic) [Compound 3, rac 6-(1-Isopropyl-1H-pyrazol-3-yl)-N-(((1S,2R)-2-(methoxymethyl)cyclobutyl)methyl)-5-methyl-2-(1-methyl-1H-imidazol-2-yl)pyrrolo[2,1-f][1,2,4]triazin-4-amine] | B (26-49% inhibition)
3 | 150 to 500 nM | Cc1c(-c2ccn(C(C)C)n2)cn2nc(-c3nccn3C)nc(Nc3cn(C(C)C)nn3)c12 [Compound 78, N-(1-Isopropyl-1H-1,2,3-triazol-4-yl)-6-(1-isopropyl-1H-pyrazol-3-yl)-5-methyl-2-(1-methyl-1H-imidazol-2-yl)pyrrolo[2,1-f][1,2,4]triazin-4-amine] | D* (85-100% activation)
4 | > 1000 nM | COCC1CCN(c2nc(-c3nccn3C)nn3cc(-c4ccn(C(C)C)n4)c(C)c23)C1 (racemic) [Compound 2, rac 6-(1-Isopropyl-1H-pyrazol-3-yl)-4-(3-(methoxymethyl)pyrrolidin-1-yl)-5-methyl-2-(1-methyl-1H-imidazol-2-yl)pyrrolo[2,1-f][1,2,4]triazine] | C* (46-84% activation)
5 | 150 to 500 nM | Cc1c(-c2ccn(C(C)C)n2)cn2nc(-c3nccn3C)nc(Nc3nnc(C4CC4)[nH]3)c12 [Compound 81, N-(5-Cyclopropyl-4H-1,2,4-triazol-3-yl)-6-(1-isopropyl-1H-pyrazol-3-yl)-5-methyl-2-(1-methyl-1H-imidazol-2-yl)pyrrolo[2,1-f][1,2,4]triazin-4-amine] | D* (85-100% activation)
6 | 150 to 500 nM | COc1cccc(-c2cn3nc(-c4nccn4C)nc(N[C@@H]4CC[C@H](OC)C4)c3c2-c2ccccc2)c1C (racemic) [Compound 271, rac 6-(3-Methoxy-2-methylphenyl)-N-((1R,3S)-3-methoxycyclopentyl)-2-(1-methyl-1H-imidazol-2-yl)-5-phenylpyrrolo[2,1-f][1,2,4]triazin-4-amine] | D (85-100% inhibition)
7 | > 1000 nM | COc1cc(Nc2nc(-c3nccn3C)nn3cc(-c4ccn(C(C)C)n4)c(C)c23)ccn1 [Compound 87, 6-(1-Isopropyl-1H-pyrazol-3-yl)-N-(2-methoxypyridin-4-yl)-5-methyl-2-(1-methyl-1H-imidazol-2-yl)pyrrolo[2,1-f][1,2,4]triazin-4-amine] | D* (85-100% activation)
8 | > 1000 nM | COc1ncc(Nc2nc(-c3nccn3C)nn3cc(-c4ccn(C(C)C)n4)c(C)c23)cn1 [Compound 80, 6-(1-Isopropyl-1H-pyrazol-3-yl)-N-(2-methoxypyrimidin-5-yl)-5-methyl-2-(1-methyl-1H-imidazol-2-yl)pyrrolo[2,1-f][1,2,4]triazin-4-amine] | D* (85-100% activation)
9 | 510 to 1000 nM | COc1cccc(-c2cn3nc(-c4nccn4C)nc(N[C@@H]4CC[C@@H](OC)C4)c3c2-c2ccccc2)c1Cl.Cl (racemic) [Compound 34, rac 6-(2-Chloro-3-methoxyphenyl)-N-((1R,3R)-3-methoxycyclopentyl)-2-(1-methyl-1H-imidazol-2-yl)-5-phenylpyrrolo[2,1-f][1,2,4]triazin-4-amine hydrochloride] | D (85-100% inhibition)
10 | 150 to 500 nM | COc1cc(Nc2nc(-c3nccn3C)nn3cc(-c4ccn(C(C)C)n4)c(-c4ccccc4)c23)ncn1 [Compound 22, 6-(1-Isopropyl-1H-pyrazol-3-yl)-N-(6-methoxypyrimidin-4-yl)-2-(1-methyl-1H-imidazol-2-yl)-5-phenylpyrrolo[2,1-f][1,2,4]triazin-4-amine] | A* (1-25% activation)
11 | > 1000 nM | COCC1CCN(c2nc(-c3nccn3C)nn3cc(-c4ccn(C(C)C)n4)c(-c4ccccc4)c23)C1.Cl (racemic) [Compound 19, rac 6-(1-Isopropyl-1H-pyrazol-3-yl)-4-(3-(methoxymethyl)pyrrolidin-1-yl)-2-(1-methyl-1H-imidazol-2-yl)-5-phenylpyrrolo[2,1-f][1,2,4]triazine hydrochloride salt] | D* (85-100% activation)
12 | > 1000 nM | Cc1c(-c2ccn(C(C)C)n2)cn2nc(-c3nccn3C)nc(Nc3cnn(C(C)C)n3)c12 [Compound 77, 6-(1-Isopropyl-1H-pyrazol-3-yl)-N-(2-isopropyl-2H-1,2,3-triazol-4-yl)-5-methyl-2-(1-methyl-1H-imidazol-2-yl)pyrrolo[2,1-f][1,2,4]triazin-4-amine] | D* (85-100% activation)
13 | > 1000 nM | Cc1ccn2nc(-c3nccn3C)nc(N)c12.O=C(O)C(F)(F)F [Compound 37, 5-Methyl-2-(1-methyl-1H-imidazol-2-yl)pyrrolo[2,1-f][1,2,4]triazin-4-amine trifluoroacetic acid salt] | 0 (0% inhibition)
14 | > 1000 nM | Cc1c(-c2ccn(C(C)C)n2)cn2nc(-c3nccn3C)nc(Nc3ncc(C4CC4)o3)c12 [Compound 90, 5-Cyclopropyl-N-(6-(1-isopropyl-1H-pyrazol-3-yl)-5-methyl-2-(1-methyl-1H-imidazol-2-yl)pyrrolo[2,1-f][1,2,4]triazin-4-yl)oxazol-2-amine] | A* (1-25% activation)
15 | > 1000 nM | Cn1ccnc1-c1nc(O)c2c(-c3ccccc3)ccn2n1 [Compound 39, 2-(1-Methyl-1H-imidazol-2-yl)-5-phenylpyrrolo[2,1-f][1,2,4]triazin-4-ol] | 0 (0% inhibition)
16 | > 1000 nM | COC1CCCN(c2nc(-c3nccn3C)nn3cc(-c4ccn(C(C)C)n4)c(-c4ccccc4)c23)C1 (racemic) [Compound 21, rac 6-(1-Isopropyl-1H-pyrazol-3-yl)-4-(3-methoxypiperidin-1-yl)-2-(1-methyl-1H-imidazol-2-yl)-5-phenylpyrrolo[2,1-f][1,2,4]triazine] | C* (46-84% activation)
17 | > 1000 nM | COc1ncncc1Nc1nc(-c2nccn2C)nn2cc(-c3ccn(C(C)C)n3)c(C)c12 [Compound 88, 6-(1-Isopropyl-1H-pyrazol-3-yl)-N-(4-methoxypyrimidin-5-yl)-5-methyl-2-(1-methyl-1H-imidazol-2-yl)pyrrolo[2,1-f][1,2,4]triazin-4-amine] | D* (85-100% activation)
18 | > 1000 nM | CO[C@H]1CC[C@@H](Nc2nc(-c3nccn3C)nn3cc(-c4ccn(C(C)C)n4)c(C)c23)C1 (racemic) [Compound 1, rac 6-(1-Isopropyl-1H-pyrazol-3-yl)-N-((1R,3S)-3-methoxycyclopentyl)-5-methyl-2-(1-methyl-1H-imidazol-2-yl)pyrrolo[2,1-f][1,2,4]triazin-4-amine] | C* (46-84% activation)
19 | > 1000 nM | COc1ncccc1Nc1nc(-c2nccn2C)nn2cc(-c3ccn(C(C)C)n3)c(C)c12 [Compound 85, 6-(1-Isopropyl-1H-pyrazol-3-yl)-N-(2-methoxypyridin-3-yl)-5-methyl-2-(1-methyl-1H-imidazol-2-yl)pyrrolo[2,1-f][1,2,4]triazin-4-amine] | D* (85-100% activation)
20 | > 1000 nM | COC[C@@H]1CC[C@@H]1CNc1nc(-c2nccn2C)nn2cc(-c3ccn(C(C)C)n3)c(-c3ccccc3)c12 (racemic) [Compound 20, rac 6-(1-Isopropyl-1H-pyrazol-3-yl)-N-(((1S,2R)-2-(methoxymethyl)cyclobutyl)methyl)-2-(1-methyl-1H-imidazol-2-yl)-5-phenylpyrrolo[2,1-f][1,2,4]triazin-4-amine] | D (85-100% inhibition)
21 | 150 to 500 nM | COc1cnc(Nc2nc(-c3nccn3C)nn3cc(-c4ccn(C(C)C)n4)c(C)c23)cn1 [Compound 83, 6-(1-Isopropyl-1H-pyrazol-3-yl)-N-(5-methoxypyrazin-2-yl)-5-methyl-2-(1-methyl-1H-imidazol-2-yl)pyrrolo[2,1-f][1,2,4]triazin-4-amine] | D* (85-100% activation)
22 | > 1000 nM | COc1cccc(Nc2nc(-c3nccn3C)nn3cc(-c4ccn(C(C)C)n4)c(C)c23)n1 [Compound 7, 6-(1-Isopropyl-1H-pyrazol-3-yl)-N-(6-methoxypyridin-2-yl)-5-methyl-2-(1-methyl-1H-imidazol-2-yl)pyrrolo[2,1-f][1,2,4]triazin-4-amine] | 0 (0% inhibition)
23 | < 150 nM | COCc1noc(Nc2nc(-c3nccn3C)nn3cc(-c4ccn(C(C)C)n4)c(C)c23)n1 [Compound 82, N-(6-(1-Isopropyl-1H-pyrazol-3-yl)-5-methyl-2-(1-methyl-1H-imidazol-2-yl)pyrrolo[2,1-f][1,2,4]triazin-4-yl)-3-(methoxymethyl)-1,2,4-oxadiazol-5-amine] | D* (85-100% activation)
